Data from patent publication US20170367390A1, “USE OF ELLAGIC ACID DIHYDRATE IN FOOD PRODUCTS AND NUTRACEUTICALS” (HALO LIFE SCIENCE, LLC, priority 2014, published 2017).
Entries after “also recorded” stand apart in the source; their conditions may differ.

What was measured:
[1] = Weight loss and blood glucose in female SWV mice with STZ induced diabetes, 30 days gavage; type: in vivo, mouse; conditions: STZ diabetic mice; predicted from in vitro data of Example 5
Description: Weight loss and blood glucose in diabetes induced mice treated with ellagic acid was determined and weight loss and blood glucose in mice treated with ellagic acid dihydrate may be determined by the following procedures. Induction of Diabetes: Diabetes is induced in mice by intraperitoneal injection with Streptozotocin (STZ 40 mg/kg) daily for five days. The mice are considered hyperglycemic when the glucose level of each dam is above 200 mg/dL. The mice are fasted for 4 hours before STZ injection and glucose measurement. Treatment: The mice are treated daily for thirty days with ellagic acid or control in the form of a supplemental pill homogenized and suspended in 25% water solution of Cremophor EL. The mice are treated for one month via gavage using the human equivalent dose of 122.4 mg pill/kg of subject (40.6 mg ellagic acid/kg of the subject), the human equivalent does of 40.6 mg ellagic acid/kg of the subject using 98% pure ellagic acid, or control vehicle (25% water solution of Cremophor EL). The human equivalent dose is calculated as described in Example 8. Treatments would start two weeks after the last STZ injection in which hyperglycemia is confirmed in the diabetic mice. The mice would be weighed daily and glucose levels would be measured in fasted animals every five days.

p44/42 MAPK = experiment: p44/42 MAPK:Phos p44/42 MAPK ratio by immunocytochemistry, high-content imaging in C2C12; type: cell-based, mouse; conditions: serum starved C2C12, 30 minutes; 400 nM, 0.04 nM
Description: Stimulation of AKT pathways and MAPK pathways in ellagic acid dihydrate, metformin, and insulin treated cell cultures was performed. Insulin stimulates glucose uptake into cells by increasing GLUT4 activation, and AKT, specifically phos-AKT, signaling alters GLUT4 translocation. […] Cellular assays were performed using mouse myoblast C2C12 cells. Relative protein levels of AKT:phos AKT and p44/42 MAPK:phos p44/42 MAPK were determined.
Serum starved cells (1 hr) were treated for 30 minutes with each of the tested compounds. Ratios of phosphorylated to non-phosphorylated proteins were determined using immunocytochemistry labeling (anti-AKT, anti-Phos AKT; or anti-p44/42 MAPK, anti-Phos p44/42 MAPK) on a high-content imaging system (Operetta, Perkin Elmer) using the fluorescent signal of anti-rabbit Alexa 647. Increased phosphorylation is indicated as decrease in signal of AKT:Phos AKT ratio (log 2 scale) and p44/42 MAPK:Phos p44/42 MAPK ratio (log 2 scale) relative to vehicle treated cells.

MEF cells = experiment: Glucose uptake, 2-NBDG labeling, flow cytometry, MEFs; type: cell-based, mouse
Description: Cellular assays were performed using mouse myoblast C2C12 cells and MEF cells. […] Increased glucose uptake was indicated as increasing signal of 2-NBDG ([…]) in cells. Glucose uptake assays were carried out in a final incubation volume of 50 μl consisting of, 2-NBDG), (100 μM) in 1× Phosphate Buffered Saline w/Ca+, Mg+ (PBS++). The same buffer was used for washing cells. Insulin was used as a positive control. All testing compounds were prepared in 10% DMSO and diluted 1:100 for a final concentration of 0.1% DMSO (vehicle). Cells were culture to 70-90% confluence and then washed twice with PBS++. Cells were incubated for 30 minutes at 37° C. in PBS++. Nuclear stain, HCS CellMask stain (blue, Invitrogen), and/or testing compounds (ellagic acid dihydrate, insulin, or vehicle) were added. Cells were incubated for 30 min at 37° C. Cells were washed twice with PBS++ and incubated with 2-NBDG for 10 minutes. Cells were washed thrice with PBS++ and then imaged in PBS++. Alternatively, the final PBS wash was removed and cells were incubated with Accutase (Invitrogen) for 10 min at 37° C., neutralized with 10% FBS in 1×PBS, and analyzed by flow cytometry. An additional experiment was performed to measure glucose uptake in C2Cl2 cells exposed to metformin, insulin and ellagic acid dihydrate 2 (batch 2). FIG. 5C. Glucose uptake in ellagic acid dihydrate treated cell culture was measured and compared to glucose uptake under insulin or ellagic acid treatment. […] Flow cytometry results were run in triplicate with 1000 cells per batch.

AKT = experiment: AKT:Phos AKT ratio by immunocytochemistry, high-content imaging in C2C12; type: cell-based, mouse; conditions: serum starved C2C12, 30 minutes; 4 nM-4 μM for insulin and ellagic acid dihydrate
Description: Stimulation of AKT pathways and MAPK pathways in ellagic acid dihydrate, metformin, and insulin treated cell cultures was performed. Insulin stimulates glucose uptake into cells by increasing GLUT4 activation, and AKT, specifically phos-AKT, signaling alters GLUT4 translocation. […] Cellular assays were performed using mouse myoblast C2C12 cells. […] Serum starved cells (1 hr) were treated for 30 minutes with each of the tested compounds.

[2] = system: mouse myoblast C2C12 cells; experiment: Glucose uptake, 2-NBDG labeling, flow cytometry, C2C12; type: cell-based
Description: Cellular assays were performed using mouse myoblast C2C12 cells and MEF cells. […] Increased glucose uptake was indicated as increasing signal of 2-NBDG ([…]) in cells. Glucose uptake assays were carried out in a final incubation volume of 50 μl consisting of, 2-NBDG), (100 μM) in 1× Phosphate Buffered Saline w/Ca+, Mg+ (PBS++). The same buffer was used for washing cells. Insulin was used as a positive control. All testing compounds were prepared in 10% DMSO and diluted 1:100 for a final concentration of 0.1% DMSO (vehicle). Cells were culture to 70-90% confluence and then washed twice with PBS++. Cells were incubated for 30 minutes at 37° C. in PBS++. Nuclear stain, HCS CellMask stain (blue, Invitrogen), and/or testing compounds (ellagic acid dihydrate, insulin, or vehicle) were added. Cells were incubated for 30 min at 37° C. Cells were washed twice with PBS++ and incubated with 2-NBDG for 10 minutes. Cells were washed thrice with PBS++ and then imaged in PBS++. Alternatively, the final PBS wash was removed and cells were incubated with Accutase (Invitrogen) for 10 min at 37° C., neutralized with 10% FBS in 1×PBS, and analyzed by flow cytometry. An additional experiment was performed to measure glucose uptake in C2Cl2 cells exposed to metformin, insulin and ellagic acid dihydrate 2 (batch 2). FIG. 5C.

O.O.O=c1oc2c(O)c(O)cc3c(=O)oc4c(O)c(O)cc1c4c23 [ellagic acid dihydrate]
mean glucose level values compared to mice treated with ellagic acid [1]: lower mean glucose level values
weight loss compared to mice treated with ellagic acid [1]: greater decrease in weight loss
p44/42 MAPK:Phos p44/42 MAPK ratio relative to vehicle (p44/42 MAPK): increase in p44/42 MAPK
increased glucose uptake (percent change relative to vehicle) (MEF cells; 400 nM exposure, fibroblasts (MEFs), flow cytometry): 47%
dose effect for increasing glucose uptake (MEF cells; MEFs, flow cytometry, 2-NBDG): dose effect for increasing glucose uptake
increase in glucose uptake compared with ellagic acid or insulin (MEF cells; MEFs, flow cytometry, Example 5): significantly greater increase in glucose uptake than that seen in ellagic acid (EA) or insulin treatment
glucose uptake (2-NBDG signal) relative to vehicle (MEF cells; MEFs, flow cytometry, vehicle 0.1% DMSO): significantly greater than vehicle treated
glucose uptake relative to insulin (MEF cells; fibroblasts (MEFs), at most concentrations tested / equal concentrations, dihydrate): significantly more glucose uptake relative to insulin; also recorded: exceeded the uptake induced by insulin
AKT:Phos AKT ratio (log 2 scale) relative to vehicle treated cells (AKT): increase in AKT relative to Phos-AKT signal
increase in glucose uptake compared with metformin ([2]; C2C12, at 4000 nm, FIG. 5C (ellagic acid dihydrate batch 2)): greater increase in glucose uptake than metformin
dose effect for increasing glucose uptake ([2]; C2C12, flow cytometry, 2-NBDG): dose effect for increasing glucose uptake
glucose uptake (2-NBDG signal) relative to vehicle ([2]; C2C12, flow cytometry, vehicle 0.1% DMSO): significantly greater than vehicle treated
increase in glucose uptake in myoblasts relative to fibroblasts ([2]; C2C12 myoblasts versus MEF fibroblasts): ~4 ×
glucose uptake relative to insulin ([2]; myoblasts (C2C12), at most concentrations tested / equal concentrations, dihydrate): significantly more glucose uptake relative to insulin; also recorded: exceeded the uptake induced by insulin
